The target in test [1] is T1, lipoxygenase derived from rat basophilic leukemia (RBL-1) cells (Rattus norvegicus, UniProt P12527).
T1 construct: Single cell suspensions of RBL-1 cells are homogenized to obtain the microsomal fraction containing lipoxygenase and cyclooxygenase; endogenous in cells; host or cells: RBL-1 (rat basophilic leukemia) cells, homogenate/microsomal fraction
T1 sequence (P12527 1-673): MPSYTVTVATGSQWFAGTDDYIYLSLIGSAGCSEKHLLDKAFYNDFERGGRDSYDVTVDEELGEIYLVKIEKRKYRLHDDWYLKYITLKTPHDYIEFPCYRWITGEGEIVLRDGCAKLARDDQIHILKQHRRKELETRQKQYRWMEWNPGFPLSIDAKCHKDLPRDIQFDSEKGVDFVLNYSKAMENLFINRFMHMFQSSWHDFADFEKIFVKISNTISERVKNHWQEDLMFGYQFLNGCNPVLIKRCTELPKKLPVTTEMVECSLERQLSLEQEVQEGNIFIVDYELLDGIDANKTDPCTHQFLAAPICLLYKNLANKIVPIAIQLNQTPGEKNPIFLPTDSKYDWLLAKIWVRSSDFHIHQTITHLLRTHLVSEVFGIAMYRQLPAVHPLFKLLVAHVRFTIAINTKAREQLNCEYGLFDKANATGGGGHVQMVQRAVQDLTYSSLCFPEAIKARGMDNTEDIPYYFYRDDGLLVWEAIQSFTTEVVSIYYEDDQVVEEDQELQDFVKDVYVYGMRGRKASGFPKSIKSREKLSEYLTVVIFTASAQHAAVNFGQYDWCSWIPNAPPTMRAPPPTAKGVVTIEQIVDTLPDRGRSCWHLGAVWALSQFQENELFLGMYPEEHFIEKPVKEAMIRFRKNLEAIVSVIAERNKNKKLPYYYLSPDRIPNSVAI
Description: % inhibition of formation of lipoxygenase products 5,12-di-HETE (L1) and 5-HETE (L2) in RBL-1 microsomal homogenate. The class given is biochemical. More on the design: inhibition: dose or concentration left out as unconfirmed. As for the experimental part:
(§1) The primary screening test used is a determination of the inhibition of lipoxygenase and cyclooxygenase derived from rat basophilic leukemia (RBL-1) cells. The test was carried out according to the following procedure:
(§2) Single cell suspensions of RBL-1 cells are homogenized to obtain the microsomal fraction containing lipoxygenase and cyclooxygenase. Test compounds are added to the enzyme-containing homogenate for a 5 min. preincubation period at 37° C. prior to the addition of ^14 C-arachidonic acid substrate. Following incubation at 37° C. for 15 min., the reaction is stopped by the addition of 2M formic acid and the enzyme-substrate products are extracted into chloroform. An aliquot of the extract is evaporated to dryness, reconstituted in ether to 1/10 original volume, spotted on thin layer chromatography plates and chromatographed. The peak areas of radioactivity representing the products are located by scanning the plates. The quantity of products formed is estimated by measuring the height of the radioactivity peaks observed on the chromatographic scans. Alternatively, the areas of radioactivity are scraped from the plate and the ^14 C quantitated by scintillation counting. The percent inhibition in the formation of the cyclooxygenase product prostaglandin D2, designated as C1, and lipoxygenase products 5,12-di-HETE and 5-HETE, designated L1 and L2 respectively, are shown. Compounds with >50% inhibition of L1 and L2 at a screening concentration of 1 μM are considered active.

The target of test [2] is T2, cyclooxygenase derived from rat basophilic leukemia (RBL-1) cells (Rattus norvegicus, UniProt Q63921).
T2 construct: Single cell suspensions of RBL-1 cells are homogenized to obtain the microsomal fraction containing lipoxygenase and cyclooxygenase; endogenous in cells; host or cells: RBL-1 (rat basophilic leukemia) cells, homogenate/microsomal fraction
T2 sequence (Q63921 27-602): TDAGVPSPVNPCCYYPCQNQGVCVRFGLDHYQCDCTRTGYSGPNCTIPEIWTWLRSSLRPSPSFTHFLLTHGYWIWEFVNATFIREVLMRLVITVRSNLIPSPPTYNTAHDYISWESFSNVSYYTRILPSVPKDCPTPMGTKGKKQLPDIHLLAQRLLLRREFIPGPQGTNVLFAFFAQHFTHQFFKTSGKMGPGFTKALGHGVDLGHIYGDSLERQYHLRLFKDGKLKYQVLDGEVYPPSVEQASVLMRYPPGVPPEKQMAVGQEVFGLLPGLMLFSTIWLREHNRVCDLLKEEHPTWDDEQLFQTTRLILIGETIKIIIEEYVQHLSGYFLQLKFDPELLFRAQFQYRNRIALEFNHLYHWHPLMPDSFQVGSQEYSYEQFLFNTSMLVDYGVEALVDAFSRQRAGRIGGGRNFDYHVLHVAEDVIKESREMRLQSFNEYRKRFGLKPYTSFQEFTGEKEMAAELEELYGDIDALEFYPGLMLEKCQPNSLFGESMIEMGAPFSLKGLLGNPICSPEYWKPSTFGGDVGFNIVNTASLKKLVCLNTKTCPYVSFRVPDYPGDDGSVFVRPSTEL
Description: % inhibition of formation of cyclooxygenase product prostaglandin D2 (C1) in RBL-1 microsomal homogenate. More on the design: inhibition: dose or concentration left out as unconfirmed. The note with it: read-out: % Inhibition in vitro, C1 (prostaglandin D2). The class given is biochemical. As for the experimental part:
as §1, §2

Test [3] concerns SRS-A component of immunologically induced bronchoconstriction. Description: effect on the SRS-A component of immunologically induced bronchoconstriction in guinea pigs. The class given is in vivo. The note with it: guinea pig. As for the experimental part: The test was carried out according to the following procedure: Outbred female guinea pigs were sensitized to egg albumin by a 1 mL ip injection of a 1 mg/mL egg albumin alum suspension. Twelve to sixteen days after immunization, the animals were used for the test. They were anesthetized with urethane (1.5 gm/kg ip) and surgically prepared with a jugular vein canula connected to a three-way stopcock for administration of drugs and antigen challenge. The trachea was cannulated and the animal artifically respired. The intratracheal pressure was continuously recorded and expressed in mm Hg. Naproxen sodium (10 mg/kg) and pyrilamine maleate (0.3 mg/kg) in phosphate buffered saline, pH 7.2, were administered intravenously in a single solution seven minutes prior to antigen challenge. Propranolol (0.1 mg/kg) was also given iv three minutes prior to challenge with egg albumin (300 μg/kg iv). The animals were dosed orally with compounds in water or in a vehicle of 3% corn starch, 5% polyethylene glycol 400, and 0.34% Tween 8™ in water at one or four hours before challenge. Results were recorded as the maximum increase in intratracheal pressure following antigen challenge. Activity of the compounds was measured as percent inhibition of the mean peak intratracheal pressure in the group of dosed animals in comparison to the mean peak intratracheal pressure in the group of vehicle treated animals. The results are expressed in terms of % inhibition.

Where [4] appears, read: 0.25 h, line carries a superscript without letter (probably footnote a, 0.1 μM), read-out: % Inhibition in vitro, L1 (5,12-di-HETE).
The mark [5] stands for this setting: 0.25 h, line carries a superscript without letter (probably footnote a, 0.1 μM), read-out: % Inhibition in vitro, L2 (5-HETE).
The mark [6] stands for this setting: 0.25 h, line carries a superscript without letter (probably footnote a, 0.1 μM).
The mark [7] stands for this setting: read-out: % Inhibition in vitro, L1 (5,12-di-HETE).
Where [8] appears, read: read-out: % Inhibition in vitro, L2 (5-HETE).
The mark [9] stands for this setting: 100 mg/kg p.o., at 1 hour before challenge.
[10] abbreviates: 100 mg/kg p.o., at 4 hours before challenge.

Counter-ions that a name gives are not always drawn. Like-named read-outs stand apart in the source and are kept apart here.

The term inhibition denotes the change of the read-out against control, counted positive when it falls.

Take `N#CCCCCNc1ccc(O)cc1` [Example 1c, 5-[(4-Hydroxyphenyl)amino]pentanenitrile]: the inhibition at 1 µM in test [1] (setting [4]) came to 100%; in test [1] (setting [5]), 100%; in test [2] (setting [6]), 0%.

For the compound `N#CCCCCCCNc1ccc(O)cc1` [Example 2d, 7-[(4-Hydroxyphenyl)amino]heptanenitrile], the values for the inhibition at 1 µM in test [1] (setting [7]), in test [1] (setting [8]) and in test [2] were 92%, 98% and 42%, respectively. For the same compound, the “% Inhibition in vivo (mean peak intratracheal pressure)” value (“% Inhibition in vivo” below) in test [3] (setting [9]) is recorded as 66%; in test [3] (setting [10]), 61%.

On to `Cl.N#CCCCCCCNc1ccccc1O` [Example 3c, 7-[(2-Hydroxyphenyl)amino]heptanenitrile monohydrochloride], for which the inhibition stood at 100% in test [1] (setting [8]) and 0% in test [2]. Also, the results for the “% Inhibition in vivo” value in test [3] (setting [9]) and in test [3] (setting [10]) were 4% and 11%, respectively.

As to `N#CCCCCCCCNc1ccc(O)cc1.O=C(O)/C=C\C(=O)O` [Example 4c, 8-[(4-Hydroxyphenyl)amino]octanenitrile (Z)-2-butenedioate], the inhibition at 1 µM in test [1] (setting [4]) is 100%; in test [1] (setting [5]) it was 100%; in test [2] (setting [6]) it was 0%. Further, the figures for the “% Inhibition in vivo” value in test [3] (setting [9]) and in test [3] (setting [10]) were 17% and 76%, respectively.

For the compound `N#CCCCCCCCCNc1ccc(O)cc1.O=C(O)/C=C\C(=O)O` [Example 5c, 9-[(4-Hydroxyphenyl)amino]nonanenitrile (Z)-2-butenedioate], the inhibition in test [1] (setting [7]) turned out to be 82%; in test [1] (setting [8]), 95%; in test [2], 0%. In addition, the “% Inhibition in vivo” value in test [3] (setting [9]) is listed as 0%; in test [3] (setting [10]) it was 25%.

For `CN(CCCCCCC#N)c1ccc(O)cc1` [Example 6c], the inhibition at 1 µM in test [1] (setting [4]) was 100%; in test [1] (setting [5]) it was 100%; in test [2] (setting [6]), 28%. Moreover, the “% Inhibition in vivo” value in test [3] (setting [9]) is recorded as 6%.

Consider `CC(=O)Oc1ccc(N(C)CCCCCCC#N)cc1` [Example 6d, 7-[[4-(Acetyloxy)phenyl]methylamino]heptanenitrile], for which the inhibition in test [1] (setting [7]) was 91%; in test [1] (setting [8]), 85%; in test [2] it was 14%.

With `Cc1cc(O)ccc1NCCCCCCC#N.Cl` [Example 7c, 7-[(4-Hydroxy-2-methylphenyl)amino]heptanenitrile monohydrochloride], the inhibition in test [1] (setting [8]) stood at 65%; in test [2], 0%. The “% Inhibition in vivo” value was determined as 66% in test [3] (300 mg/kg p.o. (footnote b), at 1 hour before challenge) and 86% in test [3] (300 mg/kg p.o. (footnote b), at 4 hours before challenge).

`Cc1cc(NCCCCCCC#N)ccc1O` [Example 8c, 7-[(4-Hydroxy-3-methylphenyl)amino]heptanenitrile monohydrochloride]: the figures for the inhibition at 1 µM in test [1] (setting [4]), in test [1] (setting [5]) and in test [2] (setting [6]) were 100%, 100% and 13%, respectively.

`N#CCCCCCCNc1cc(Cl)c(O)c(Cl)c1` [Example 9c, 7-[(3,5-Dichloro-4-hydroxyphenyl)amino]heptanenitrile monohydrochloride]: the inhibition in test [1] (setting [8]) came out at 95%; in test [2], 9%.

Regarding `N#CCCCCCCNc1ccc(O)c(CO)c1` [Example 10c, 7-[[4-Hydroxy-3-(hydroxymethyl)phenyl]amino]heptanenitrile monohydrochloride], the inhibition at 1 µM is 100% in test [1] (setting [4]), 100% in test [1] (setting [5]) and 10% in test [2] (setting [6]).

In the case of `Cl.N#CCCCCCCNc1ccc(O)cc1F` [Example 11c, 7-[(2-Fluoro-4-hydroxyphenyl)amino]heptanenitrile monohydrochloride], the figures for the inhibition in test [1] (setting [7]), in test [1] (setting [8]) and in test [2] were 86%, 93% and 22%, respectively. Moreover, the “% Inhibition in vivo” value in test [3] (setting [9]) is 7%; in test [3] (setting [10]) it was 30%.

For the origin of these results see patent US4835180A, “N-(ω-cyanoalkyl)aminophenols and use as inhibitors of lipoxygenase activity” (Sterling Drug Inc., priority 1986, dated 1989).
